For 15 molecules, IC50 results are on record in patent US20260146035A1, “FUSED BICYCLIC COMPOUNDS AND THEIR USE AS MER AND AXL INHIBITORS” (DONG-A ST CO., LTD., priority 2022, published 2026).

As a reminder, the IC50 is the concentration that gives 50% inhibition.

One assay deals with T1, human MER (528-end) (Homo sapiens, UniProt Q12866).
T1 construct: human MER (528-end); purchased Camnabio, Japan
T1 sequence (Q12866 528-999 limits assumed): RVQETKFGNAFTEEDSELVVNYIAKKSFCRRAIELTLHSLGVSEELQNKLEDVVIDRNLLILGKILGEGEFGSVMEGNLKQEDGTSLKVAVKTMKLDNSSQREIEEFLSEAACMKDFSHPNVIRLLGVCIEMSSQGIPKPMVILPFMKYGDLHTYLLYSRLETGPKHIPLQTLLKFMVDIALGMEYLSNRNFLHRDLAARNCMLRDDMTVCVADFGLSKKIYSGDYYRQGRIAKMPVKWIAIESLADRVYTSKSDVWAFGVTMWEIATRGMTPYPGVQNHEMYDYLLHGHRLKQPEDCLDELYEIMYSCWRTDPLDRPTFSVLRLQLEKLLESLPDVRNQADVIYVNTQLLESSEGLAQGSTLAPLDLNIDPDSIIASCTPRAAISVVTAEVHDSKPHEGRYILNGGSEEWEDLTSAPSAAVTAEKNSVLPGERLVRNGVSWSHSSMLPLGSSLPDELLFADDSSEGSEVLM
The assay can be described thus: HTRF kinase activity biochemical assay, MER. As to conditions: 10 μM ATP, 30 minutes pre-incubation; read-out: HTRF MERTK IC50. Background: TR-FRET usually uses a lanthanide donor and a delayed reading to cut background.

Another assay concerns the target T2, human AXL (473-end) (Homo sapiens, UniProt P30530).
T2 construct: human AXL (473-end); purchased SignalChem, Canada
T2 sequence (P30530 473-894 limits assumed): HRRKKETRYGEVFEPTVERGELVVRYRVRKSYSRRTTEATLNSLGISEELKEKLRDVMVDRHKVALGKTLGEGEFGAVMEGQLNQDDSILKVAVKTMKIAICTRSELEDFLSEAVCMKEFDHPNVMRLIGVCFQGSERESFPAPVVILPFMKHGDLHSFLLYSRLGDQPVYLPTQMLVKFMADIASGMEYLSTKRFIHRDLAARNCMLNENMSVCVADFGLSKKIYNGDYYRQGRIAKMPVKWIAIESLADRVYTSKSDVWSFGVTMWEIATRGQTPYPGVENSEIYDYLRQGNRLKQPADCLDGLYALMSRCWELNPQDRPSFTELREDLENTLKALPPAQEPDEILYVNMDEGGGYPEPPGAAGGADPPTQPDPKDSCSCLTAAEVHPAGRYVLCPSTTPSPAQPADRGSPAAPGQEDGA
The assay can be described thus: HTRF kinase activity biochemical assay, AXL. As to conditions: 10 μM ATP, 30 minutes pre-incubation.

The target in a further assay is T3, human TYRO3 (455-end) (Homo sapiens, UniProt Q06418).
T3 construct: TYRO3 (455-end); purchased SignalChem, Canada
T3 sequence (Q06418 455-890 limits assumed): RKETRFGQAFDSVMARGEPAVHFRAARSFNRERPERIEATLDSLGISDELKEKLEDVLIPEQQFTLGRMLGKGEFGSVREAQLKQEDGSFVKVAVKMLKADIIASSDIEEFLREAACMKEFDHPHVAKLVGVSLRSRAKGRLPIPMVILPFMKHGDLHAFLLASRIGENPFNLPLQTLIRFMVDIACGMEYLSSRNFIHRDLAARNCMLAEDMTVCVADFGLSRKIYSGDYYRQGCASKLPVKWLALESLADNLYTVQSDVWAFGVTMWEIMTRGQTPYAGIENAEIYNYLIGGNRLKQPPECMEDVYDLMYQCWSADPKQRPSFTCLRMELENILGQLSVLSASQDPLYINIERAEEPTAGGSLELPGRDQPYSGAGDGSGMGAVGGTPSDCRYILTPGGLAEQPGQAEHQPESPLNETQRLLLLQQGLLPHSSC
The assay can be described thus: HTRF kinase activity biochemical assay, TYRO3. As to conditions: 10 μM ATP, 30 minutes pre-incubation; read-out: HTRF TYRO IC50.

Molecules are shown by their SMILES.

For `CN1CCN([C@H]2CC(C)(C)c3cc(-c4ccc(CO[C@H]5CCC[C@@H]5NC(=O)c5cc(-c6cccnc6F)cnc5N)cc4)ccc32)CC1` [Example 150, 6-amino-N-[(1S,2S)-2-({4-[(1S)-3,3-dimethyl-1-(4-methylpiperazin-1-yl)-2,3-dihydro-1H-inden-5-yl]phenyl}methoxy)cyclopentyl]-2′-fluoro[3,3′-bipyridine]-5-carboxamide], the 50% inhibitory concentration (IC50) was under 10 nM at human MER (528-end), under 10 nM against human AXL (473-end) and 10 to 100 nM on human TYRO3 (455-end).

`Cn1cc(-c2cnc(N)c(C(=O)N[C@H]3CCC[C@@H]3OCc3ccc(-c4ccc5c(c4)CCC5N4CCN(CC5COC(C)(C)O5)CC4)cc3)c2)cn1` (stereo partly drawn) [Example 79, 2-amino-N-[(1S,2S)-2-{[4-(1-{4-[(2,2-dimethyl-1,3-dioxolan-4-yl)methyl]piperazin-1-yl}-2,3-dihydro-1H-inden-5-yl)phenyl]methoxy}cyclopentyl]-5-(1-methyl-1H-pyrazol-4-yl)pyridine-3-carboxamide]: the concentration for half-maximal inhibition (IC50) on human MER (528-end) is under 10 nM; against human AXL (473-end), under 10 nM; at human TYRO3 (455-end), over 1000 nM.

On to `CC1(C)CN(C2CCN(CCO)CC2)c2ccc(-c3ccc(CO[C@H]4COC[C@@H]4NC(=O)c4cc(-c5cccnc5F)cnc4N)cc3)cc21` [Example 49, 6-amino-2′-fluoro-N-{(3S,4R)-4-[(4-{1-[1-(2-hydroxyethyl)piperidin-4-yl]-3,3-dimethyl-2,3-dihydro-1H-indol-5-yl}phenyl)methoxy]oxolan-3-yl}[3,3′-bipyridine]-5-carboxamide], for which the IC50 was under 10 nM at human MER (528-end), under 10 nM on human AXL (473-end) and 100 to 1000 nM on human TYRO3 (455-end).

Turning to `Cn1cc(-c2cnc(N)c(C(=O)N[C@H]3CCC[C@@H]3OCc3ccc(-c4ccc5c(c4)CC(F)(F)[C@@H]5N4CCN(CCO)CC4)cc3)c2)cn1` [Example 65, 2-amino-N-{(1S,2S)-2-[(4-{(1R)-2,2-difluoro-1-[4-(2-hydroxyethyl)piperazin-1-yl]-2,3-dihydro-1H-inden-5-yl}phenyl)methoxy]cyclopentyl}-5-(1-methyl-1H-pyrazol-4-yl)pyridine-3-carboxamide], the 50% inhibitory concentration (IC50) is under 10 nM on human MER (528-end), under 10 nM against human AXL (473-end) and 100 to 1000 nM at human TYRO3 (455-end).

As for `Cn1cc(-c2cnc(N)c(C(=O)N[C@H]3CCC[C@@H]3OCc3ccc(-c4ccc5c(ccn5C(F)F)c4)cc3)c2)cn1` [Example 64, 2-amino-N-[(1S,2S)-2-({4-[1-(difluoromethyl)-1H-indol-5-yl]phenyl}methoxy)cyclopentyl]-5-(1-methyl-1H-pyrazol-4-yl)pyridine-3-carboxamide], the values for the IC50 on human MER (528-end), at human AXL (473-end) and at human TYRO3 (455-end) were under 10 nM, 10 to 100 nM and over 1000 nM, respectively.

Turning to `CC1(C)CN(C2CCN(CCO)CC2)c2ccc(-c3ccc(CO[C@H]4COC[C@@H]4NC(=O)c4cc(-c5ccc(F)nc5)cnc4N)cc3)cc21` [Example 35, 6-amino-6′-fluoro-N-{(3S,4R)-4-[(4-{1-[1-(2-hydroxyethyl)piperidin-4-yl]-3,3-dimethyl-2,3-dihydro-1H-indol-5-yl}phenyl)methoxy]oxolan-3-yl}[3,3′-bipyridine]-5-carboxamide], the figures for the half-inhibitory concentration (IC50) on human MER (528-end), against human AXL (473-end) and at human TYRO3 (455-end) were under 10 nM, 10 to 100 nM and 100 to 1000 nM, respectively.

Regarding `CN(C)C1c2ccc(-c3ccc(CO[C@H]4CCC[C@@H]4NC(=O)c4cc(-c5cnn(C)c5)cnc4N)cc3)cc2CC1(C)C` (stereo partly drawn) [Example 109, 2-amino-N-[(1S,2S)-2-({4-[1-(dimethylamino)-2,2-dimethyl-2,3-dihydro-1H-inden-5-yl]phenyl}methoxy)cyclopentyl]-5-(1-methyl-1H-pyrazol-4-yl)pyridine-3-carboxamide], the half-maximal inhibitory concentration (IC50) at human MER (528-end) was 10 to 100 nM; on human AXL (473-end), under 10 nM; on human TYRO3 (455-end), over 1000 nM.

As to `Cn1cc(-c2cnc(N)c(C(=O)N[C@H]3CCC[C@@H]3OCc3ccc(-c4ccc5c(C6CCN(CCO)CC6)cn(C)c5c4)cc3)c2)cn1` [Example 26, 2-amino-N-{(1S,2S)-2-[(4-{3-[1-(2-hydroxyethyl)piperidin-4-yl]-1-methyl-1H-indol-6-yl}phenyl)methoxy]cyclopentyl}-5-(1-methyl-1H-pyrazol-4-yl)pyridine-3-carboxamide], the IC50 is under 10 nM on human MER (528-end), 10 to 100 nM at human AXL (473-end) and over 1000 nM at human TYRO3 (455-end).

Turning to `Nc1ncc(-c2ccc(F)nc2)cc1C(=O)N[C@H]1CCC[C@@H]1OCc1ccc(-c2ccc3c(c2)CCCC3N2CCN(CCO)CC2)cc1` (stereo partly drawn) [Example 106, 6-amino-6′-fluoro-N-{(1S,2S)-2-[(4-{5-[4-(2-hydroxyethyl)piperazin-1-yl]-5,6,7,8-tetrahydronaphthalen-2-yl}phenyl)methoxy]cyclopentyl}[3,3′-bipyridine]-5-carboxamide], the 50% inhibitory concentration (IC50) at human MER (528-end) is under 10 nM; against human AXL (473-end), under 10 nM; on human TYRO3 (455-end), 10 to 100 nM.

Regarding `CC1(C)C[C@@H](N2CCN(CCO)CC2)c2ccc(-c3ccc(CO[C@H]4CCC[C@@H]4NC(=O)c4cc(-c5ccc(F)nc5)cnc4N)cc3)cc21` [Example 97, 6-amino-6′-fluoro-N-{(1S,2S)-2-[(4-{(1R)-1-[4-(2-hydroxyethyl)piperazin-1-yl]-3,3-dimethyl-2,3-dihydro-1H-inden-5-yl}phenyl)methoxy]cyclopentyl}[3,3′-bipyridine]-5-carboxamide], the 50% inhibitory concentration (IC50) is 100 to 1000 nM on human MER (528-end), 100 to 1000 nM on human AXL (473-end) and over 1000 nM at human TYRO3 (455-end).

For `CC1(C)C[C@@H](N2CCN(CCO)CC2)c2ccc(-c3ccc(CO[C@H]4CCC[C@@H]4NC(=O)c4cc(-c5cccnc5F)cnc4N)cc3)cc21` [Example 135, 6-amino-2′-fluoro-N-{(1S,2S)-2-[(4-{(1R)-1-[4-(2-hydroxyethyl)piperazin-1-yl]-3,3-dimethyl-2,3-dihydro-1H-inden-5-yl}phenyl)methoxy]cyclopentyl}[3,3′-bipyridine]-5-carboxamide], the half-maximal inhibitory concentration (IC50) on human MER (528-end) was under 10 nM; on human AXL (473-end), under 10 nM; on human TYRO3 (455-end), 100 to 1000 nM.

As to `Nc1ncc(C(F)(F)F)cc1C(=O)N[C@H]1COC[C@@H]1OCc1ccc(-c2ccc3c(ccn3C3CCN(CCO)CC3)c2)cc1` [Example 24, 2-amino-N-{(3S,4R)-4-[(4-{1-[1-(2-hydroxyethyl)piperidin-4-yl]-1H-indol-5-yl}phenyl)methoxy]oxolan-3-yl}-5-(trifluoromethyl)pyridine-3-carboxamide], the IC50 is 10 to 100 nM on human MER (528-end), 100 to 1000 nM against human AXL (473-end) and over 1000 nM at human TYRO3 (455-end).

In the case of `Nc1ncc(-c2ccc(F)nc2)cc1C(=O)N[C@H]1COC[C@@H]1OCc1ccc(-c2ccc3c(ccn3C3CCN(CCO)CC3)c2)cc1` [Example 25, 6-amino-6′-fluoro-N-{(3S,4R)-4-[(4-{1-[1-(2-hydroxyethyl)piperidin-4-yl]-1H-indol-5-yl}phenyl)methoxy]oxolan-3-yl}[3,3′-bipyridine]-5-carboxamide], the half-maximal inhibitory concentration (IC50) at human MER (528-end) was under 10 nM; against human AXL (473-end) it was 10 to 100 nM; at human TYRO3 (455-end), over 1000 nM.

On to `COc1ccnc(N)c1C(=O)N[C@H]1CCC[C@@H]1OCc1ccc(-c2ccc3c(c2)C(C)(C)CC3N2CCN(C)CC2)cc1` (stereo partly drawn) [Example 138, 2-amino-N-[(1S,2S)-2-({4-[3,3-dimethyl-1-(4-methylpiperazin-1-yl)-2,3-dihydro-1H-inden-5-yl]phenyl}methoxy)cyclopentyl]-4-methoxypyridine-3-carboxamide], for which the IC50 at human MER (528-end) is under 10 nM; against human AXL (473-end), under 10 nM; on human TYRO3 (455-end) it was 100 to 1000 nM.

On to `CN(C)CC(=O)N1CCc2cc(-c3ccc(CO[C@H]4CCC[C@@H]4NC(=O)c4cc(-c5cnn(C)c5)cnc4N)cc3)ccc21` [Example 2, 2-amino-N-{(1S,2S)-2-[(4-{1-[(dimethylamino)acetyl]-2,3-dihydro-1H-indol-5-yl}phenyl)methoxy]cyclopentyl}-5-(1-methyl-1H-pyrazol-4-yl)pyridine-3-carboxamide], for which the results for the half-maximal inhibitory concentration (IC50) at human MER (528-end), on human AXL (473-end) and at human TYRO3 (455-end) were 100 to 1000 nM, 100 to 1000 nM and over 1000 nM, respectively.
